{"source": "PubChem BioAssay (NCI)", "assay_in_all_cases": "NCI tumour cell line growth inhibition, 48 h", "key": {"[1]": {"system": "NCI-H23 lung"}, "[2]": {"system": "NCI-H460 lung"}, "[3]": {"system": "NCI-H522 lung"}, "[4]": {"system": "NCI/ADR-RES ovarian"}, "[5]": {"system": "OVCAR-3 ovarian"}, "[6]": {"system": "OVCAR-4 ovarian"}, "[7]": {"system": "OVCAR-5 ovarian"}, "[8]": {"system": "OVCAR-8 ovarian"}, "[9]": {"system": "PC-3 prostate"}, "[10]": {"system": "RPMI-8226 leukemia"}, "[11]": {"system": "RXF 393 renal"}, "[12]": {"system": "SF-268 CNS"}, "[13]": {"system": "SF-295 CNS"}, "[14]": {"system": "SF-539 CNS"}, "[15]": {"system": "SK-MEL-2 melanoma"}, "[16]": {"system": "SK-MEL-28 melanoma"}, "[17]": {"system": "SK-MEL-5 melanoma"}, "[18]": {"system": "SK-OV-3 ovarian"}, "[19]": {"system": "SN12C renal"}, "[20]": {"system": "SNB-19 CNS"}, "[21]": {"system": "SNB-75 CNS"}, "[22]": {"system": "SR leukemia"}, "[23]": {"system": "SW-620 colon"}, "[24]": {"system": "T-47D breast"}, "[25]": {"system": "TK-10 renal"}, "[26]": {"system": "U251 CNS"}, "[27]": {"system": "UACC-257 melanoma"}, "[28]": {"system": "UACC-62 melanoma"}, "[29]": {"system": "UO-31 renal"}}, "note": "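96-well plates; 48 h exposure; 5 concentrations. Endpoints by linear interpolation between flanking doses. Not reached: highest tested concentration assigned. GI50: concentration for 50% inhibition of growth. TGI: concentration producing complete growth inhibition.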", "data": [{"smiles": "COc1cnc2c(c1)C(=O)c1c-2n(CCCBr)c(=O)c2cc([N+](=O)[O-])ccc12", "values": [{"measurement": "TGI", "setting": "[1]", "value": 4270, "unit": "nM"}, {"measurement": "GI50", "setting": "[2]", "value": 40.7, "unit": "nM"}, {"measurement": "TGI", "setting": "[2]", "value": 699, "unit": "nM"}, {"measurement": "GI50", "setting": "[3]", "value": 433, "unit": "nM"}, {"measurement": "TGI", "setting": "[3]", "value": 8460, "unit": "nM"}, {"measurement": "GI50", "setting": "[4]", "value": 187, "unit": "nM"}, {"measurement": "TGI", "setting": "[4]", "value": 12400, "unit": "nM"}, {"measurement": "GI50", "setting": "[5]", "value": 248, "unit": "nM"}, {"measurement": "TGI", "setting": "[5]", "value": 1050, "unit": "nM"}, {"measurement": "GI50", "setting": "[6]", "value": 686, "unit": "nM"}, {"measurement": "TGI", "setting": "[6]", "value": 9170, "unit": "nM"}, {"measurement": "GI50", "setting": "[7]", "value": 1190, "unit": "nM"}, {"measurement": "TGI", "setting": "[7]", "value": 10200, "unit": "nM"}, {"measurement": "GI50", "setting": "[8]", "value": 364, "unit": "nM"}, {"measurement": "TGI", "setting": "[8]", "value": 7210, "unit": "nM"}, {"measurement": "GI50", "setting": "[9]", "value": 314, "unit": "nM"}, {"measurement": "TGI", "setting": "[9]", "value": 11700, "unit": "nM"}, {"measurement": "GI50", "setting": "[10]", "value": 301, "unit": "nM"}, {"measurement": "TGI", "setting": "[10]", "value": 4700, "unit": "nM"}, {"measurement": "GI50", "setting": "[11]", "value": 364, "unit": "nM"}, {"measurement": "TGI", "setting": "[11]", "value": 2430, "unit": "nM"}, {"measurement": "GI50", "setting": "[12]", "value": 158, "unit": "nM"}, {"measurement": "TGI", "setting": "[12]", "value": 9300, "unit": "nM"}, {"measurement": "GI50", "setting": "[13]", "value": 70.9, "unit": "nM"}, {"measurement": "TGI", "setting": "[13]", "value": 852, "unit": "nM"}, {"measurement": "GI50", "setting": "[14]", "value": 279, "unit": "nM"}, {"measurement": "TGI", "setting": "[14]", "value": 1070, "unit": "nM"}, {"measurement": "GI50", "setting": "[15]", "value": 2040, "unit": "nM"}, {"measurement": "TGI", "setting": "[15]", "value": 6310, "unit": "nM"}, {"measurement": "GI50", "setting": "[16]", "value": 1520, "unit": "nM"}, {"measurement": "TGI", "setting": "[16]", "value": 12000, "unit": "nM"}, {"measurement": "GI50", "setting": "[17]", "value": 224, "unit": "nM"}, {"measurement": "TGI", "setting": "[17]", "value": 533, "unit": "nM"}, {"measurement": "GI50", "setting": "[18]", "value": 312, "unit": "nM"}, {"measurement": "TGI", "setting": "[18]", "value": 7740, "unit": "nM"}, {"measurement": "GI50", "setting": "[19]", "value": 269, "unit": "nM"}, {"measurement": "TGI", "setting": "[19]", "value": 3480, "unit": "nM"}, {"measurement": "GI50", "setting": "[20]", "value": 282, "unit": "nM"}, {"measurement": "TGI", "setting": "[20]", "value": 18700, "unit": "nM"}, {"measurement": "GI50", "setting": "[21]", "value": 430, "unit": "nM"}, {"measurement": "TGI", "setting": "[21]", "value": 13800, "unit": "nM"}, {"measurement": "GI50", "setting": "[22]", "value": 37.8, "unit": "nM"}, {"measurement": "TGI", "setting": "[22]", "value": "> 100000", "unit": "nM"}, {"measurement": "GI50", "setting": "[23]", "value": 60.7, "unit": "nM"}, {"measurement": "TGI", "setting": "[23]", "value": 5130, "unit": "nM"}, {"measurement": "GI50", "setting": "[24]", "value": 233, "unit": "nM"}, {"measurement": "TGI", "setting": "[24]", "value": 3190, "unit": "nM"}, {"measurement": "GI50", "setting": "[25]", "value": 2000, "unit": "nM"}, {"measurement": "TGI", "setting": "[25]", "value": 16300, "unit": "nM"}, {"measurement": "GI50", "setting": "[26]", "value": 101, "unit": "nM"}, {"measurement": "TGI", "setting": "[26]", "value": 3980, "unit": "nM"}, {"measurement": "GI50", "setting": "[27]", "value": 597, "unit": "nM"}, {"measurement": "TGI", "setting": "[27]", "value": 4390, "unit": "nM"}, {"measurement": "GI50", "setting": "[28]", "value": 82.1, "unit": "nM"}, {"measurement": "TGI", "setting": "[28]", "value": 1480, "unit": "nM"}, {"measurement": "GI50", "setting": "[29]", "value": 56.6, "unit": "nM"}, {"measurement": "TGI", "setting": "[29]", "value": 1510, "unit": "nM"}]}]}
